Data published in patent publication US11498899B2, “Nitrone herbicides” (FMC Corporation, priority 2016, dated 2022).

Assays:
[1] = tested on: pigweed (Amaranthus retroflexus); test: Test A postemergence, visual injury rating 0-100; format: in vivo; conditions: 0 to 100 scale
[2] = tested on: blackgrass (Alopecurus myosuroides); test: Test A postemergence, visual injury rating 0-100; format: in vivo; conditions: 0 to 100 scale
[3] = tested on: galium (catchweed bedstraw, Galium aparine); test: Test A postemergence, visual injury rating 0-100; format: in vivo; conditions: 0 to 100 scale
kochia (Kochia scoparia) [4] = test: Test A postemergence, visual injury rating 0-100; format: in vivo; conditions: 0 to 100 scale
[5] = tested on: wheat (Triticum aestivum); test: Test A postemergence, visual injury rating 0-100; format: in vivo; conditions: 0 to 100 scale
[6] = tested on: ragweed (common ragweed, Ambrosia elatior); test: Test A postemergence, visual injury rating 0-100; format: in vivo; conditions: 0 to 100 scale
[7] = tested on: barnyardgrass (Echinochloa crus-galli); test: Test A postemergence, visual injury rating 0-100; format: in vivo; conditions: 0 to 100 scale
[8] = tested on: ryegrass, Italian (Italian ryegrass, Lolium multiflorum); test: Test A postemergence, visual injury rating 0-100; format: in vivo; conditions: 0 to 100 scale
[9] = tested on: foxtail, giant (giant foxtail, Setaria faberii); test: Test A postemergence, visual injury rating 0-100; format: in vivo; conditions: 0 to 100 scale
corn (Zea mays) = test: Test A postemergence, visual injury rating 0-100; format: in vivo; conditions: 0 to 100 scale
[10] = tested on: barnyardgrass (Echinochloa crus-galli); test: Test A preemergence, visual injury rating 0-100 (0 no effect, 100 complete control); format: in vivo
[11] = tested on: barnyardgrass (Echinochloa crus-galli); test: Test B flooded paddy test, visual rating 0-100; conditions: Flood, 250 g ai/ha, applied to paddy water, rated after 13 to 15 days
[12] = tested on: ducksalad (Heteranthera limosa); test: Test B flooded paddy test, visual rating 0-100; conditions: Flood, 250 g ai/ha, applied to paddy water, rated after 13 to 15 days
[13] = tested on: pigweed (Amaranthus retroflexus); test: Test A preemergence, visual injury rating 0-100; format: in vivo
kochia (Kochia scoparia) [14] = test: Test A preemergence, visual injury rating 0-100; format: in vivo
[15] = tested on: ragweed (common ragweed, Ambrosia elatior); test: Test A preemergence, visual injury rating 0-100; format: in vivo
[16] = tested on: ryegrass, Italian (Italian ryegrass, Lolium multiflorum); test: Test A preemergence, visual injury rating 0-100; format: in vivo
[17] = tested on: foxtail, giant (giant foxtail, Setaria faberii); test: Test A preemergence, visual injury rating 0-100; format: in vivo
rice (Oryza sativa) = test: Test B flooded paddy test, visual rating 0-100 (0 no effect, 100 complete control); conditions: Flood, 250 g ai/ha, applied to paddy water, rated after 13 to 15 days
[18] = 31 g ai/ha, 0 to 100 scale (0 no effect, 100 complete control), approx. 10 days

Compound	Pigweed plant response rating ([1]; 125 g ai/ha)	Blackgrass plant response rating ([2]; 125 g ai/ha)	Galium plant response rating ([3]; 125 g ai/ha)	Kochia plant response rating (kochia (Kochia scoparia) [4]; 125 g ai/ha)	Wheat plant response rating ([5]; 125 g ai/ha)	Ragweed plant response rating ([6]; 125 g ai/ha)	Barnyardgrass plant response rating ([7]; 125 g ai/ha)	Ryegrass, Italian plant response rating ([8]; 125 g ai/ha)	Foxtail, Giant plant response rating ([9]; 125 g ai/ha)	Corn plant response rating (corn (Zea mays); 125 g ai/ha)	Barnyardgrass plant response rating (0 to 100 scale) ([10]; 125 g ai/ha)	Barnyardgrass plant response rating (0 to 100 scale) [11]	Ducksalad plant response rating (0 to 100 scale) [12]	Pigweed plant response rating (0 to 100 scale) ([13]; 125 g ai/ha)	Kochia plant response rating (0 to 100 scale) (kochia (Kochia scoparia) [14]; 125 g ai/ha)	Ragweed plant response rating (0 to 100 scale) ([15]; 125 g ai/ha)	Ryegrass, Italian plant response rating (0 to 100 scale) ([16]; 125 g ai/ha)	Foxtail, Giant plant response rating (0 to 100 scale) ([17]; 125 g ai/ha)	Rice plant response rating (0 to 100 scale) (rice (Oryza sativa))	other results
CC1=[N+]([O-])[C@H](C(=O)Nc2cccc(F)c2F)[C@@H](c2ccc(C(F)F)cc2)C1 (relative stereo) [Compound 93, rel-(2S,3R)-3-(4-Difluoromethyl)phenyl)-N-(2,3-difluorophenyl) 3,4-dihydro-5-methyl-2H-pyrrole-2-carboxamide 1-oxide]	50	60	60	0	60	0	70	60	80	60	90	70	100	80	30	70	70	90	15	Pigweed plant response rating ([1]; 500 g ai/ha): 80; Blackgrass plant response rating ([2]; 500 g ai/ha): 70; Galium plant response rating ([3]; 500 g ai/ha): 70; Kochia plant response rating (kochia (Kochia scoparia) [4]; 500 g ai/ha): 80; Wheat plant response rating ([5]; 500 g ai/ha): 80; Ragweed plant response rating ([6]; 500 g ai/ha): 70; Barnyardgrass plant response rating ([7]; 500 g ai/ha): 90; Ryegrass, Italian plant response rating ([8]; 500 g ai/ha): 70; Foxtail, Giant plant response rating ([9]; 500 g ai/ha): 90; Corn plant response rating (corn (Zea mays); 500 g ai/ha): 90; Barnyardgrass plant response rating (0 to 100 scale) ([10]; 500 g ai/ha): 90; Pigweed plant response rating (0 to 100 scale) ([13]; 500 g ai/ha): 90; Kochia plant response rating (0 to 100 scale) (kochia (Kochia scoparia) [14]; 500 g ai/ha): 80; Ragweed plant response rating (0 to 100 scale) ([15]; 500 g ai/ha): 90; Ryegrass, Italian plant response rating (0 to 100 scale) ([16]; 500 g ai/ha): 90; Foxtail, Giant plant response rating (0 to 100 scale) ([17]; 500 g ai/ha): 90
CC1=[N+]([O-])[C@H](C(=O)Nc2cccc(F)c2F)[C@@H](c2ccc(F)c(OC(F)(F)C(F)F)c2)C1 [Compound 54, (2S,3R)—N-(2,3-Difluorophenyl)-3-[4-fluoro-3-(1,1,2,2-tetrafluoroethyoxy)phenyl]-3,4-dihydro-5-methyl-2H-pyrrole-2-carboxamide 1-oxide]	60	70	70	50	50	30	70	70	70	70	90	35	80	70	50	50	80	90	0	Pigweed plant response rating ([1]; 31 g ai/ha): 20; Blackgrass plant response rating ([2]; 31 g ai/ha): 60; Galium plant response rating ([3]; 31 g ai/ha): 40; Kochia plant response rating (kochia (Kochia scoparia) [4]; 31 g ai/ha): 0; Wheat plant response rating ([5]; 31 g ai/ha): 0; Ragweed plant response rating ([6]; 31 g ai/ha): 0; Barnyardgrass plant response rating ([7]; 31 g ai/ha): 30; Ryegrass, Italian plant response rating ([8]; 31 g ai/ha): 0; Foxtail, Giant plant response rating ([9]; 31 g ai/ha): 30; Corn plant response rating (corn (Zea mays); 31 g ai/ha): 40; Barnyardgrass plant response rating [10, 18]: 80; Pigweed plant response rating [13, 18]: 0; Kochia plant response rating (kochia (Kochia scoparia) [14]; [18]): 0; Ragweed plant response rating [15, 18]: 0; Ryegrass, Italian plant response rating [16, 18]: 60; Foxtail, Giant plant response rating [17, 18]: 90
